Measurements from patent publication US6083496A, “Polyamine transport inhibitors” (priority 1996, dated 2000).
Where two headings read alike, the source gives them in different places.

Key:
[1] = Stability in buffered aqueous solution; assay type: physicochemical; details: buffered at pH=7.0
[2] = test system: ZR-75-1 cells; assay: Effect of inhibitors on cell proliferation (11 days, DNA content); assay type: cell-based, human
Procedure: Effect of Inhibitors on Cell Proliferation--For growth studies, ZR-75-1 cells were cultured in MEZR medium or in phenol red-free RPMI 1640 supplemented with 2 mM L-glutamine, 1 mM sodium pyruvate, 15 mM Hepes, antibiotics, 1 nM 17β-estradiol, 0.5 μg of bovine insulin per ml and 5% (v/v) charcoal-treated fetal bovine serum (SD medium), as indicated in the text. […] M. L. 1989. in The Physiology of Polyamines (Bachrach, U., and Helmer, Y. M. eds) Vol. I, pp. 203-229, CRC Press, Boca Raton). […] Endocrinology 126: 3223-3231). Medium was changed every other day in these experiments because of the slow reaction of the compound with an unknown component present in the IMEM and RPMI 1640 medium formulation.

[3] = test system: polyamine transporter; assay: Putrescine uptake ([3H]putrescine) in ZR-75-1 cells; assay type: cell-based, human; details: DESC up to 100 μM, MESC up to 200 μM
Procedure: (§1) J. Biol. […] Endocrinology 126: 3223-3231). […] Cell cultures were then washed twice with 1 ml PBS containing 5.7 mM sym-norspermidine. Cells were then lysed with 200-μl aliquot of 1 N NaOH and incubated for 30 minutes at 60° C. After neutralization with 200 μl of 1 N HCl, radioactivity was determined from a 250-μl of the cell lysate by scintillation counting. Uptake activity was expressed per amount of total cellular protein as determined by the method of Bradford (Bradford, M. M. 1976. Anal. Biochem. 72: 248-254). Non-specific binding of radioactive substrate was similarly determined in parallel for both cell lines after a 15 second-incubation with 400 μl of ice-cold uptake solution. […] Km, Ki and Vmax values were then estimated by Line-weaver-Burke analysis. For competitive inhibitors, Ki values were also estimated by measuring uptake activity in the presence of logarithmically increasing concentrations of antagonist, and using the Cheng-Prusoff equation (Cheng. Y. -C. and Prusoff, W. H. 1973. Biochem. Pharmacol. 22: 3099-3108) by iterative curve fitting for a sigmoidal curve. For mixed competitive/noncompetitive inhibition, two methods were used to calculate kinetic constants. […] C. 1976. Enzymes, 3rd Ed., Academic Press, San Diego, Calif.). […] C. 1976. Enzymes, 3rd Ed., Academic Press, San Diego, Calif.).

[4] = test system: polyamine transporter; assay: Spermine uptake ([14C]spermine) in ZR-75-1 cells; assay type: cell-based, human
Procedure: as §1

[5] = test system: ZR-75-1 cells; assay: Reversal of DFMO-induced growth inhibition by exogenous spermidine; assay type: cell-based, human
Procedure: Effect of Inhibitors on Cell Proliferation--For growth studies, ZR-75-1 cells were cultured in MEZR medium or in phenol red-free RPMI 1640 supplemented with 2 mM L-glutamine, 1 mM sodium pyruvate, 15 mM Hepes, antibiotics, 1 nM 17β-estradiol, 0.5 μg of bovine insulin per ml and 5% (v/v) charcoal-treated fetal bovine serum (SD medium), as indicated in the text. When polyamines or polyamine analogs were added to serum-containing media, 1 mM aminoguanidine was added to inhibit bovine serum amine oxidase (BSAO) activity (Morgan, D. M. L. 1989. in The Physiology of Polyamines (Bachrach, U., and Helmer, Y. M. eds) Vol. I, pp. 203-229, CRC Press, Boca Raton). The effect of the transport inhibitors on cell growth was measured by incubating ZR-75-1 cells for 11 days in medium supplemental with antagonist, polyamines and/or 1 mM DFMO as indicated, followed by colorimetric determination of DNA content with 3,5-diaminobenzaic acid (Simard, J., Dauvois, S., Haagensen, D. E., Levesque, C., Merand, Y. and Labrie, F. 1990. Endocrinology 126: 3223-3231). Medium was changed every other day in these experiments because of the slow reaction of the compound with an unknown component present in the IMEM and RPMI 1640 medium formulation.

[6] = test system: ZR-75-1 cells; assay: Time course of intracellular [3H]spermidine accumulation with transport antagonists; assay type: cell-based; details: Homo sapiens
Procedure: The time course of intracellular accumulation of spermidine in the presence of transport antagonists was determined by incubating ZR-75-1 cells in 24-well plates with DESC (50 or 200 μM) or MESC (200 μM) in dissolved in MEZR medium containing 5 μM [^3 H]spermidine in the presence or absence of cycloheximide (CHX, 200 μM), and harvesting at the indicated times for the determination of intracellular radioactive contents, as described above for polyamine uptake assays.

[7] = test system: ZR-75-1 cells; assay: Intracellular accumulation of DESC and MESC and polyamine contents (HPLC); assay type: cell-based, human
Procedure: Polyamine Analysis--ZR-75-1 cells were plated in 100 mm culture dishes at 5×10^5 cells/dish in MEZR medium and grown for 5 days with medium changes every other day. Fresh MEZR medium containing the indicated concentration of transport antagonist was then added, plus or minus 200 μM cycloheximide (CHX), and cells were incubated for 1 or 6 hours. […] Cell pellets were resuspended in 300 μl of 10% (v/v) trichloroacetic acid or Tris-DTT buffer (50 mM Tris/HCl, 0.1 mM EDTA, 5 mM DTT, pH 7.5) and stored at -20° C. until further analysis. For chromatographic analysis, samples were first quickly thawed and incubated for 15 minutes at 37° C. Trichloroacetic acid was then added to DTT-containing samples to a final concentration of 10% (wt/v). Samples were dispersed for 2 minutes in a sonicating water bath, and pelleted in a microcentrifuge for 5 minutes. The trichloroacetic acid-insoluble pellet was solubilized in 300-500 μl of 1 N NaOH and used to determine protein content using bovine serum albumin (fraction V) as standard.
Since DESC was eluted as a late, broad peak in the HPLC system used, DTT was added to cell extracts to reduce DESC to MESC and decrease the detection threshold. ZR-75-1 cells were incubated for 1 or 6 hours in MEZR medium in the presence of 50 or 200 μM DESC or MESC prior to determination of polyamine contents. CHX was added at 200 μM where indicated. Other details are provided under "Materials and Methods". Values are the mean±SD of triplicate determinations from 2 independent experiments.

[8] = DESC stability in biological media (HPLC, cell-free); assay type: physicochemical; details: imem medium, 37° C., 5% CO2, cell-free, read-out: Fraction of compound decomposed
Procedure: DESC stability--DESC stability was tested by incubating the compound dissolved (at 50 μM) in PBS or in IMEM medium containing 10% (v/v) fetal bovine serum plus or minus 1 mM aminoguanidine in a humid 5% CO2 atmosphere at 37° C. and in the absence of cells. At indicated times, trichloroacetic acid was added to aliquots of this solution to a final concentration 10% (w/v) and the samples directly analyzed by HPLC as above.

[9] = secondary amino group of the spermine head; cited from earlier work
[10] = test system: polyamine transporter; assay: Spermidine uptake ([3H]spermidine) in CHO-K1 cells; assay type: cell-based, Chinese hamster; details: MESC thioether derivatives, FIG. 5
[11] = test system: polyamine transporter; details: ZR-75-1 cells; compound as its own substrate; read-out: Km, putrescine transport; cited from earlier work
[12] = test system: polyamine transporter; details: ZR-75-1 cells; compound as its own substrate; read-out: Km, spermidine transport; cited from earlier work
[13] = test system: ZR-75-1 cells; details: background; cited from earlier work
[14] = 200 μM compound + 200 μM CHX, 1 h
[15] = 200 μM compound + 200 μM CHX, 6 h

NCCCNCCCC(NCCCN)C(=O)NCCSSCCN (stereo not drawn) [DEASC, N-[2,2'-Dithio(Ethyl, 1'-Aminoethyl)]spermine-5-carboxamide]
Stability in aqueous solution [1]: stable for months
Influence of 1 mM aminoguanidine on the growth effect of the compound [2]: completely prevented by the amine oxidase inhibitor
inhibition at 50 µM ([2]; Homo sapiens, ZR-75-1, 264 h, 50 μM, 11 days): 20%
Mode of inhibition of [3H]putrescine uptake [3]: mixed competitive/non-competitive

NCCCNCCCC(NCCCN)C(=O)NCCSSCCNC(=O)C(CCCNCCCN)NCCCN (stereo not drawn) [DESC, 2,2'-dithiobis(N-ethyl-spermine-5-carboxamide)]
Increase in affinity for the polyamine transporter on dimerization of MESC into DESC ([4]; DESC relative to MESC): up to 20 fold
Ki against [14C]spermine transport, fold lower than that of DEASC ([4]; ZR-75-1 cells, FIG. 2): about 5 fold
Ki against [14C]spermine transport, fold lower than that of MESC ([4]; ZR-75-1 cells, FIG. 2): ~16 fold
Prevention of the reversal of DFMO-induced growth inhibition by spermidine ([5]; 50 μM, DESC:spermidine ratio up to 500): unable to prevent the reversal
inhibition at 200 µM ([6]; 5 μM [3H]spermidine, 6 hours, no CHX, read-out: Decrease of net spermidine accumulation): 50%
activity at 200 µM ([6]; read-out: Cellular level of newly internalized spermidine relative to control conditions): 20%
Stability in aqueous solution [1]: stable for months
DESC intracellular content ([7]; 50 μM compound, 1 h): < 0.01 nmol/mg protein
MESC intracellular content ([7]; 50 μM compound, 1 h): < 0.01 nmol/mg protein
Spermidine intracellular content ([7]; 50 μM compound, 1 h): 0.81 ± 0.14 nmol/mg protein
DESC intracellular content ([7]; 50 μM compound, 6 h): < 0.01 nmol/mg protein
MESC intracellular content ([7]; 50 μM compound, 6 h): < 0.01 nmol/mg protein
Spermidine intracellular content ([7]; 50 μM compound, 6 h): 0.73 ± 0.11 nmol/mg protein
Spermine intracellular content ([7]; 50 μM compound, 6 h): 8.60 ± 0.29 nmol/mg protein
Effect of CHX on internalization of the compound ([7]; 200 μM DESC + 200 μM CHX): did not enhance DESC internalization
DESC intracellular content [7, 14]: < 0.01 nmol/mg protein
MESC intracellular content [7, 14]: < 0.01 nmol/mg protein
Spermidine intracellular content [7, 14]: 0.76 ± 0.04 nmol/mg protein
MESC intracellular content [7, 15]: < 0.01 nmol/mg protein
Spermidine intracellular content [7, 15]: 0.70 ± 0.03 nmol/mg protein
DESC intracellular content ([7]; 200 μM compound, 1 h): < 0.01 nmol/mg protein
MESC intracellular content ([7]; 200 μM compound, 1 h): < 0.01 nmol/mg protein
Spermidine intracellular content ([7]; 200 μM compound, 1 h): 0.79 ± 0.11 nmol/mg protein
DESC intracellular content ([7]; 200 μM compound, 6 h): 0.12 ± 0.01 nmol/mg protein
MESC intracellular content ([7]; 200 μM compound, 6 h): < 0.01 nmol/mg protein
Spermidine intracellular content ([7]; 200 μM compound, 6 h): 0.76 ± 0.11 nmol/mg protein
Intracellular level relative to accumulation of substrates (spermidine, sym-norspermidine, spermine) under identical conditions ([7]; 200 μM, 6 h): about 1.5%
degraded at 48 h, 50 µM [8]: 40%

NCCC[C@](N)(C(=O)O)C(F)F [DFMO, α-difluoromethylornithine]
inhibition at 1000 µM ([5]; Homo sapiens, ZR-75-1, 264 h, 1 mM, 11-day incubation): ~50%

NCCCNCCCC(NCCCN)C(=O)NCCS (stereo not drawn) [MESC, N-(2-mercaptoethyl)spermine-5-carboxamide]
pKa [9]: ≈ 5.5
Influence of 1 mM aminoguanidine on the growth effect of the compound [2]: not blocked by aminoguanidine
inhibition at 200 µM ([2]; Homo sapiens, ZR-75-1, 264 h, 200 μM, 11 days, read-out: Decrease in cell growth): 35%
DESC intracellular content ([7]; 50 μM compound, 1 h): < 0.01 nmol/mg protein
MESC intracellular content ([7]; 50 μM compound, 1 h): < 0.01 nmol/mg protein
Spermidine intracellular content ([7]; 50 μM compound, 1 h): 0.95 ± 0.11 nmol/mg protein
DESC intracellular content ([7]; 50 μM compound, 6 h): < 0.01 nmol/mg protein
MESC intracellular content ([7]; 50 μM compound, 6 h): < 0.01 nmol/mg protein
Spermidine intracellular content ([7]; 50 μM compound, 6 h): 0.75 ± 0.11 nmol/mg protein
DESC intracellular content ([7]; 200 μM compound, 1 h): < 0.01 nmol/mg protein
MESC intracellular content ([7]; 200 μM compound, 1 h): 0.020 nmol/mg protein
Spermidine intracellular content ([7]; 200 μM compound, 1 h): 1.15 ± 0.07 nmol/mg protein
DESC intracellular content ([7]; 200 μM compound, 6 h): < 0.01 nmol/mg protein
MESC intracellular content ([7]; 200 μM compound, 6 h): 0.13 nmol/mg protein
Spermidine intracellular content ([7]; 200 μM compound, 6 h): 0.81 ± 0.15 nmol/mg protein

[N-]=[N+]=Nc1ccc(C(=O)NCCCCNC(=O)CSCCNC(=O)C(CCCNCCCN)NCCCN)c(O)c1 (stereo not drawn) [MESC-ASIB]
Ki toward spermidine uptake compared with MESC [10]: did not signicantly (P>0.10) increase the Ki

NCCCNCCCC(NCCCN)C(=O)NCCSCC(=O)NCCN1C(=O)c2cc(S(=O)(=O)O)cc3c(N)c(S(=O)(=O)O)cc(c23)C1=O (stereo not drawn) [MESC-LY]
Ki toward spermidine uptake compared with MESC [10]: did not signicantly (P>0.10) increase the Ki

NCCCNCCCC(NCCCN)C(=O)NCCSCC(N)=O (stereo not drawn) [MESC-acetamide]
Ki toward spermidine uptake compared with MESC [10]: did not signicantly (P>0.10) increase the Ki

NCCCCN [Putrescine, 1,4-butane-diamine]
Km [11]: 3.7 ± 0.4 µM

NCCCCNCCCN [Spermidine, N-[3-aminopropyl]-1,4-diaminobutane]
Km [12]: 0.49 ± 0.15 µM
Concentration completely reversing growth inhibition by 1 mM DFMO ([5]; 11 days): 0.3 µM
Inhibition of cell proliferation ([5]; concentrations superior to 0.3 μM, 11 days, FIG. 8): up to 20%
Concentration completely reversing DFMO-induced growth inhibition [13]: 300 nM

N=C(N)NN [aminoguanidine, reference compound]
Effect on cell growth, compound alone ([2]; 1 mM, 11 days): slight inhibitory effect
